Laboratory results as given in US20120283293A1, “Methods of neuroprotection involving Prostaglandin E2 EP4 (PGE2 EP4) receptor activation” (The Board of Trustees of the Leland Stanford Junior …, priority 2011, published 2012).

Key:
primary human monocytes = test: TNF-α and IL-6 ELISA in LPS-stimulated primary human monocytes; assay type: cell-based; details: LPS 100 ng/ml, AE1-329 100 nM, 6 hours
Method: Human monocyte derived macrophages were purchased from AllCells (Catalog #PB-MDM-001F: Frozen normal peripheral blood monocyte derived macrophages) and plated at a density of 23,000 cells per well in a 96 well plate. Two dilutions (1:5 and 1:10) were tested using anti-human IL6 and anti-human TNFα ELISA to measure concentrations of these two cytokines in pg/ml after 6 hours of stimulation with either vehicle alone, AE1-329 (100 nM), LPS, and LPS plus AE1-329 (100 nM).
Primary human monocytes were stimulated with either vehicle (PBS) alone, AE1-329 (100 nM), LPS (100 ng/ml), and LPS (100 ng/ml) plus AE1-329 (100 nM). Two dilutions (1:5 and 1:10) were tested using anti-human IL6 and anti-human TNF-α ELISA to measure concentrations of these two cytokines in pg/ml after 6 hours of stimulation.

[1] = test system: plasma cytokine and chemokine levels; test: plasma multi-analyte analysis in LPS-stimulated mice; assay type: in vivo, mouse; details: LPS 5 mg/kg i.p., AE1-329 300 μg/kg s.c.
Method: The murine in vivo studies were conducted in accordance with the National Institutes of Health guidelines for the use of experimental animals and protocols were approved by the Institutional Animal Care and Use Committee. C57B6 EP4 floxed mice (Schneider et al., 2004) were kindly provided by Drs. Richard and Matthew Breyer (Vanderbilt University School of Medicine, Nashville, Tenn.), and C57B6 Cd11bCre mice (Boillee et al., 2006) were kindly provided by Dr. G. Kollias (Alexander Fleming Biomedical Sciences Research Center, Vari, Greece) and Dr. Donald Cleveland (UCSD, San Diego, Calif.). All mice were housed in an environment controlled for lighting (12 hour light/dark cycle), temperature, and humidity, with food and water available ad libitum. Cd11bCre:EP4f/f and Cd11bCre:EP4+/+ mice were generated by serial crosses of C57B6 Cd11bCre and EP4f/f and EP4+/+ lines. Male Cd11bCre: EP4f/f and Cd11bCre: EP4+/+ mice were treated with either saline or LPS (5 mg/kg intraperitoneally: n=5-8 per group, 13 months of age). 24 hours after injection, mice were euthanized and brain tissue was harvested and frozen at −80° C. For pharmacological experiments, C57B6 male mice (Jackson Laboratories, Bar Harbor, Me.; n=7 or 8 per group) received an injection of saline or LPS (5 mg/kg, i.p.+/−vehicle or AE1-329 ([…]) (Qin et al., 2007; Nagamatsu et al., 2006). Mice were euthanized 6 hours later, and brain tissue was harvested and frozen at −80° C. For collection of plasma, C57B6 male mice (n=5 per group) received an injection of saline or LPS (5 mg/kg, i.p.)+/−AE1-329 ([…].) or vehicle. […] Plasma was collected after centrifugation at 1000×g for 10 min at 4° C. and frozen at −80° C.
Plasma was analyzed using the Rodent MAP™ Antigens, Version 2.0 multi-analyte profile (Rules Based Medicine, Austin, Tex.) that screens a total of 59 blood secreted proteins using multiplex fluorescent immunoassay.
Data are presented as mean±standard error of the mean and analyzed using analysis of variance or Student's t test. Prism software (GraphPad Software, Inc. San Diego, Calif.) was used for statistical analyses. Data for Griess assays and quantitative Western analyses were analyzed using one-way or two-way ANOVA, followed by Newman-Keuls multiple comparison or Bonferroni posttest analysis, respectively. For plasma multi-analyte analysis, the concentrations of the 15 plasma proteins that reached statistical significance between LPS+vehicle versus LPS+AE1-329 cohorts were transformed to relative concentrations (Median Z-score). Cluster analysis (Gene Cluster3.0, University of Tokyo, Tokyo and Java TreeView 1.0.13, Alok Saldanda, Calif.) produced a separation of samples according to treatment group and protein levels in plasma. […]

COCc1ccccc1CC[C@H](O)/C=C/[C@H]1[C@H](O)CC(=O)[C@@H]1SCCCSCC(=O)O [AE1-329]
LPS-induced increase in IL-6 levels (ELISA) (primary human monocytes): significantly reduced | LPS-induced increase in TNF-α levels (ELISA) (primary human monocytes): entirely reversed | plasma levels of IL-10 ([1]; 3 hours): significantly increased plasma levels | plasma levels of TNF-α, IL-1α, eotaxin, MDC, MIP-1α, MIP-1β, MIP-1γ, MIP-2, MCP-1, MCP-3 and MCP-5 ([1]; 3 hours): significantly decreased levels | plasma myeloperoxidase ([1]; 3 hours): reduced secreted levels | plasma levels of IL-6 and LIF ([1]; printed 'at 6 h'): trend towards decreased levels
